Tests used:
[1] = Rate of dissolution of rebaudioside A polymorph and amorphous forms in H2O at 25° C.; format: physicochemical
[2] = Sensory evaluation of sweetness linger by a panel of experts; format: in vivo; set-up: key: 0=no sweetness linger; 1=very slight sweetness linger; 2 slight sweetness linger; 3 moderate sweetness linger; 4=moderately high sweetness linger; 5 high sweetness linger
Experimental: In a particular embodiment, a panel of assessors is used to measure the reduction of sweetness linger. Briefly described, a panel of assessors (generally 8 to 12 individuals) is trained to evaluate sweetness perception and measure sweetness at several time points from when the sample is initially taken into the mouth until 3 minutes after it has been expectorated. […] A decrease in score for a time point measured after the sample has cleared the mouth indicates there has been a reduction in sweetness perception.
The panel of assessors may be trained using procedures well known to those of ordinary skill in the art. In a particular embodiment, the panel of assessors may be trained using the Spectrum™ Descriptive Analysis Method (Meilgaard et al, Sensory Evaluation Techniques, 3rd edition, Chapter 11). Desirably, the focus of training should be the recognition of and the measure of the basic tastes; specifically, sweet. […]
Sensory evaluation of the samples prepared in Example Set C was carried out under the following protocol, similar to that described hereinabove. […] Immediately upon sensing maximal sweetness, the sample was expectorated, the mouth was rinsed with water and the rate of sweetness decay (“Sweetness Linger”) was measured, where attention was focused on the sweetness 3-4 min after the water rinse. […]

With rebaudioside A [Form 2] the “Rate of dissolution in H2O at 25° C. (in words)” value (“Rate of dissolution … (in words)” for short) [1] was “Intermediate”.

With rebaudioside A [Form 1] the “Rate of dissolution in H2O at 25° C.” value [1] was “(<0.2%/ %/60 minutes” and the “Rate of dissolution … (in words)” value [1] was “Very low”.

With rebaudioside A [Form 4] the “Rate of dissolution in H2O at 25° C.” value [1] was “(>35%/ %/5 minutes” and the “Rate of dissolution … (in words)” value [1] was “High”.

In the case of rebaudioside A [Form 3], the “Rate of dissolution in H2O at 25° C.” value [1] is reported as “(>30%/ %/5 minutes” and the “Rate of dissolution … (in words)” value [1] is reported as “High”.

For rebaudioside A, the “Sweetness Linger rating” value ([2]; Example Set G: citric acid/potassium citrate composition equivalent to diet lemon-lime beverage, 400 ppm REBA base (sugar control 8 g/100 ml), scale 0-5, sweetness 3-4 min after water rinse) was 5 and the “Sweetness Linger rating” value ([2]; Example Set H: carbon-treated water with phosphoric acid (75%), pH 2.4-2.5, REBA base (sugar control 10 g/100 ml), scale 0-5) was 5.

— US8512789B2, “High-potency sweetener composition with dietary fiber and compositions sweetened therewith” (The Coca-Cola Company, priority 2005, dated 2013)
